Experimental findings from patent publication US8859777B2, “4-fluoro-4-arylpiperdin-1-yl derivatives as mu opioid function moderators” (priority 2010, dated 2014) are described below.

Structures can show the parent of a compound that is named as a salt. Where two headings read alike, the source gives them in different places.

This test deals with T1, Mu opioid receptor (Homo sapiens, UniProt P35372).
T1 construct: expressed in transfected cells; host or cells: HEK-293
The test is described as follows: Affinity for the Mu opioid receptor, [3H]diprenorphine radioligand binding. The method, then:
Compounds of the invention were assayed for affinity for the Mu opioid receptor using the methodology described in Zhang et al. (J. Pharmacol. Exp. Ther., (1998) 286: 136-141). Compounds were assessed in human recombinant (HEK-293) cells using tritium labeled diprenorphine (0.4 nM) as the specific determinant and non-specific binding was assayed with naltrexone (1 μM). Cells were incubated for 120 minutes at 22° C. before isolation and radioactivity determination by scintillation counting. The IC50 values (concentration causing a half-maximal inhibition of control specific binding) and Hill coefficients (nH) were determined by non-linear regression analysis of the competition curves generated with mean replicate values using Hill equation curve fitting (Y=D+[(A−D)/(1+(C/C50)^nH)], where Y=specific binding, D=minimum specific binding, A=maximum specific binding, C=compound concentration, C50=IC50, and nH=slope factor). The inhibition constants (Ki) were calculated using the Cheng-Prusoff equation (Ki=IC50/(1+(L/KD)), where L=concentration of radioligand in the assay, and KD=affinity of the radioligand for the receptor). Each data point was obtained in duplicate and results are the mean value.

Where [1] appears, read: human recombinant (HEK-293) cells, tritium labeled diprenorphine 0.4 nM, non-specific binding with naltrexone 1 μM, 120 minutes at 22° C., mean of duplicates, read-out: Affinity.

T1 sequence (P35372 whole entry): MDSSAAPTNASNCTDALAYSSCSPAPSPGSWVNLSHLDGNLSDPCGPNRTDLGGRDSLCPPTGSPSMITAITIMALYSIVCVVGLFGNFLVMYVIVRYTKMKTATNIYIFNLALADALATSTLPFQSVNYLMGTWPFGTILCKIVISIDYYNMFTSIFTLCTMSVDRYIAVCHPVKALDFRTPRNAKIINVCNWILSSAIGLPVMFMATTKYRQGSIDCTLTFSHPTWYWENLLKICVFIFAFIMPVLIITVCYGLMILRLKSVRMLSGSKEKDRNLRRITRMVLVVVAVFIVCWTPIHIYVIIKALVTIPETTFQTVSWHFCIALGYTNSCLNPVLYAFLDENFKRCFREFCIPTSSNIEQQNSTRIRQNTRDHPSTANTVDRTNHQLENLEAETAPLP

Turning to `FC1(c2ccc(Cl)cc2)CCN(CCC(c2ccccc2)c2ccccc2)CC1` [Example 1, 4-(4-Chlorophenyl)-1-(3,3-diphenylpropyl)-4-fluoropiperidine Hydrochloride], the Ki under setting [1] is 1000 to 10000 nM.

For `O=C(O)C(Cc1ccccc1)(Cc1ccccc1)CN1CCC(F)(c2ccc(Cl)cc2)CC1` [Example 5, 2,2-Dibenzyl-3-[4-(4-chlorophenyl)-4-fluoropiperidin-1-yl]propionic acid Hydrochloride], the Ki under setting [1] lay within 1000 to 10000 nM.

Molecule `Oc1cccc(C2(F)CCN(CCCC3CCCCC3)CC2)c1` [Example 11, 1-(3-Cyclohexylpropyl)-4-fluoro-4-(3-hydroxyphenyl)piperidine Hydrochloride] yielded a Ki of less than 100 nM.

Take `CC1CN(CCOc2ccccc2)CCC1(F)c1cccc(O)c1` (centres unmarked) [Example 13, 4-fluoro-4-(3-Hydroxyphenyl)-3-methyl-1-(2-phenoxyethyl)piperidine Hydrochloride]: the Ki was less than 100 nM.

For the molecule `CC1CN(CC(Cc2ccccc2)(Cc2ccccc2)C(=O)O)CCC1(F)c1cccc(O)c1` (centres unmarked) [Example 15, 2,2-Dibenzyl 3-[4-(3-hydroxyphenyl)-4-fluoro-3-methylpiperidin-1-yl]propionic Acid Hydrochloride], the Ki is less than 100 nM.

Consider `Cc1ccc(S(=O)(=O)Nc2cccc(C3(F)CCN(CCOc4ccccc4)CC3)c2)cc1` [Example 17, N-{3-[4-Fluoro-1-(2-phenoxyethyl)piperidin-4-yl]phenyl}-4-methyl-benzenesulfonamide Hydrochloride], for which the Ki fell in the range of 100 to 1000 nM.

Regarding `CS(=O)(=O)Nc1cccc(C2(F)CCN(CCOc3ccccc3)CC2)c1` [Example 18, N-{3-[4-Fluoro-1-(2-phenoxyethyl)piperidin-4-yl]phenyl}methane-sulfonamide Hydrochloride], the Ki under setting [1] lay in the range of 1000 to 10000 nM.

Turning to `CC(C)(C)NC(=O)Nc1cccc(C2(F)CCN(CCOc3ccccc3)CC2)c1` [Example 19, 1-tert-Butyl-3-{3-[4-fluoro-1-(2-phenoxyethyl)-piperidin-4-yl]phenyl}-urea], the Ki under setting [1] fell in the range of 1000 to 10000 nM.
